Test results taken from patent US5608095A, “Alkyl-4-silyl-phenols and esters thereof as antiatherosclerotic agents” (Hoechst Marion Roussel, Inc., priority 1996, dated 1997).
Like-named read-outs stand apart in the source and are kept apart here.

Key:
[1] = HPLC quantitation of compound and metabolite concentration in rat serum and liver; type: in vivo, male Sprague-Dawley rats; details: po, diet 0.3%, 4 days
From the text: (§1) A typical experiment consisted of 4-6 groups of rats (N=5 per group) with 1 group being a control which received no MDL compound and the other groups being treated with 0.3% MDL compound. Some of the compounds were either repeated at 0.3% or evaluated again at the lower dose of 0.1%. Male Sprague-Dawley rats, 50-100 g, (Harlan Laboratories, Indianapolis, Ind.) were housed in groups of 5, fed ad libitum water and Purina Rodent chow (#5002) with or without MDL compound as a dietary admixture for 4 days. Dietary admixtures (0.3%) were made by mixing 1.2 grams of an MDL compound with 400 grams of Purina rodent chow (#5002). The MDL compound was mixed with approximately 50 grams of food using a mortar and pestle. This was added to the remainder of the food and mixed for 3 hours on a rotary mixer. In the morning of day 5, non-fasted rats were anesthetized with carbon dioxide, and blood was collected by cardiac puncture. Rats were sacrificed by cervical dislocation. Body weights and liver weights were recorded in grams. Food consumption was recorded as grams.cndot.day^-1.cndot.rat^-1. Deaths were recorded as mortality. Aliquots of fresh serum were used for clinical chemistries, thiobarbituric acid reactive substances (TBARS) and conjugated diene measurements. Aliquots of serum (~0.5mL) and whole livers were frozen at -20° C. for compound and metabolite concentration determination at a later time.
(§2) Serum and liver concentrations of parent compound and the metabolites, bisphenol and diphenoquinone, were determined by reverse phase HPLC using a Waters 990 Powerline system. Livers (1 gram samples) were homogenized with 5.0 mL PBS, pH 7.4, using a Polytron tissue homogenizer at setting 5 for 20-30 seconds. Serum or liver homogenates were extracted as follows: 100μL of either serum or homogenate were added to 2.0 mL diethyl ether:ethanol (3:1) while vortexing the tube. The sample tubes were capped and centrifuged for 10 min at 5° C. at 3500 rpm in a Beckman GPKR centrifuge with a GH 3.7 rotor. The supernatants were transferred to clean tubes and dried under N2. Samples were reconstituted with 200 μL of acetonitrile:hexane:0.1M ammonium acetate (90:6.5:3.5, by vol.). Then, 100 μL were injected onto a Waters Deltapak C18-300 Å column, and eluted with an 83% acetonitrile:17% water mobile phase at a flow rate of 1.5 mL/min. Absorbances at the wavelengths of 240, 254, and 420 nm were recorded. Compound concentrations were calculated from known quantities of authentic parent compounds after correction for recovery; the range of recovery from spiked samples was 40 to 100%. The lowest detectable limit for this class of compounds was ~0.5 μg/mL. Concentrations were calculated as μg/mL. Concentrations were calculated as μg/mL of serum and μg/g of liver.

[2] = tested on: oxidation of serum lipids; assay: TBARS assay, rat serum; type: in vivo, male Sprague-Dawley rats; details: po, 96 h, read-out: TBARS, percent of control
From the text: as §1
In this assay the oxidation of serum lipids is initiated with CuSO4, resulting in the formation of aldehydes, such as malondialdehyde (MDA). Upon incubation with thiobarbituric acid, the absorbance of the aldehydes can be detected at 530-540 nm. As stated in the previous example, TBARS values which are lower than control serum values indicate the relative ability of a test compound to inhibit the oxidation of lipids in a sample. TBARS were measured as follows: 100 μL of serum were mixed with 400 μL of a 5 mmol CuSO4 solution and incubated at 37° C. for 3 hr. The reactions were stopped by addition of 1.0 mL of 20% trichloroacetic acid. Then 1.0 mL of 0.67% thiobarbituric acid in 0.05N sodium hydroxide was added, mixed, and the samples incubated for 30 min at 90° C. Samples were centrifuged briefly to pellet undissolved material, and the supernatants were transferred to a 96-well microtiter plate. Absorbances were measured at 540 nm using a Biotek model EL311 microplate reader. The nmoles of MDA produced were calculated from a standard curve of 0 to 10 nmoles of MDA prepared from malonaldehyde bis(dimethylacetal). Serum samples from treated rats were compared to serum samples from control rats that received no MDL compound.

[3] = Animal parameters (food, body weight, liver weight, mortality) in rats; type: in vivo, male Sprague-Dawley rats; details: diet 0.3%, 4 days; for mortality at 96 h: in vivo, po, read-out: mortality (deaths per group); for mortality at 96 h / body wt., percent of control / lw/bw (liver weight/body weight), percent of control: rat
From the text: as §1

[4] = Clinical chemistries in serum of rats; type: in vivo, male Sprague-Dawley rats; details: for response vs control in vivo at 0.3 %: po, 96 h
From the text: as §1
Blood was allowed to clot at room temperature for 30 minutes. Serum was obtained after centrifugation for 10 min at 4° C. at 3000 rpm in a Beckman J-6M/E centrifuge with a JS-4.2 rotor. Fresh serum was analyzed by a COBAS MIRA S autoanalyzer (Roche Diagnostics) using Roche diagnostic reagents for the following clinical chemistry measurements: alkaline phosphatase (ALP, kit #44553), alanine transaminase (ALT, kit #42375), aspartate aminotransferase (AST, kit #42381), total cholesterol (CHOL, kit #44334), triglyceride (TG, kit #44120), and glucose (GLU, kit #44558). ALP, ALT, and AST were calculated as units/L. Cholesterol, triglycerides, and glucose were calculated as mg/dL.

[5] = HPLC quantitation of compound and metabolite concentration in rabbit serum and liver; type: in vivo, female New Zealand White rabbits; details: diet 0.4%, 7 days
Experimental: (§3) Five independent experiments were performed in the following manner. […] Female New Zealand White rabbits (Hazelton, ~2.0-2.3 kg) were fed 0.2% cholesterol enriched rabbit chow (Purina #5322) with or without 0.4% MDL compound (except, MDL 108,804 at 0.26% and MDL 103,491 repeated at 0.6%). The MDL compounds were solubilized in 100% ethanol. MDL 108,208 was not soluble in 100% ethanol, but it was soluble in diethyl ether:ethanol (3:2 by volume). The chow was sprayed with the MDL mixtures and allowed to dry overnight in a chemical fume hood. Control chow was sprayed with ethanol. Rabbits were fed 100 grams food per day for 7 days (0.6% MDL 103,491 were fed for 14 days); water was available ad libitum. On day 7, rabbits (fasted overnight) were bled (~2 mL) from marginal ear vein; 0.6% MDL 103,491 treated rabbits were tested on day 14. They were euthanized by carbon dioxide overdose. The total body and liver weights were recorded in grams. Food consumption was recorded as grams.cndot.day^-1 .cndot.rabbit^-1. Aliquots of fresh serum were used for clinical chemistries, lipoprotein cholesterol determination, thiobarbituric acid reactive substances (TBARS) and compound and metabolite concentrations in serum. Livers (~5 gram aliquots) were frozen at -20° C. for compound and metabolite concentration determination at a later time.
as §2, with “of parent compounds and the” for “of parent compound and the”, “Livers (1 gram) were homogenized” for “Livers (1 gram samples) were homogenized”, “as follows: 100 μL of either” for “as follows: 100μL of either”, “1.5 mL/min. Absrobances at the” for “1.5 mL/min. Absorbances at the”, “calculated as μg/mL of” for “calculated as μg/mL. Concentrations were calculated as μg/mL of”

[6] = Food consumption, body and liver weight in cholesterol-fed rabbits; type: in vivo, female New Zealand White rabbits; details: diet 0.4%, 7 days
Experimental: as §3

[7] = tested on: serum cholesterol, LDL, HDL, triglycerides; assay: Serum lipids and lipoprotein cholesterol in cholesterol-fed female New Zealand White rabbits; type: in vivo; details: Oryctolagus cuniculus, po, 168 h, rabbit serum, diet 0.4%, 7 days
Experimental: as §3
Blood was allowed to clot at room temperature for 30 minutes. Serum was obtained after centrifugation for 10 min at 5° C. at 3000 rpm in a Beckman GPKR centrifuge with a GH rotor. Fresh serum was analyzed by a COBAS MIRA autoanalyzer (Roche Diagnostics) using Roche diagnostic reagents for total cholesterol (CHOL, kit #44334) and triglyceride (TG, kit #44120). Cholesterol and triglycerides were calculated as mg/dL.
Lipoprotein fractions (very low density lipoprotein, VLDL, low density lipoprotein, LDL and high density lipoprotein, HDL) were separated on a Sepharose 6HR column (1×30 cm, Pharmacia) attached to a Waters Powerline HPLC system. Fifty μL of serum were injected onto the column and eluted with phosphate buffered saline, pH 7.4, at a flow rate of 0.5 mL/min. Cholesterol reagent (Roche Diagnostics, kit #44334, diluted with 20 mL water and then with 20 mL of 0.9% saline) was added at 0.2 mL/min to the post column eluant and incubated in a knitted PFTE Kratos reaction coil (Applied Biosystems) at 37° C. for 5 min. Absorbance was measured at 500 nm. The lipoprotein subfractions were quantitated as follows: [formula]

[8] = tested on: oxidation of serum lipids; assay: TBARS assay, serum of cholesterol-fed rabbits; type: in vivo, female New Zealand White rabbits; details: Oryctolagus cuniculus, po, 168 h; rabbit serum, diet 0.4%, 7 days; read-out: TBARS, percent of control
Experimental: as §3
TBARS are a qualitative indication of the oxidation of lipids in a sample. In this assay the oxidation of serum lipids is initiated with CuSO4, resulting in the formation of aldehydes, such as malondialdehyde (MDA). Upon incubation with thiobarbituric acid, the absorbance of the aldehydes can be detected at 530-540 nm. TBARS values which are lower than control serum values indicate the relative ability of a compound to inhibit the oxidation. TBARS were measured as follows: 50 μL of serum were mixed with 50 μL of 0.9% saline and 400 μL of a 5 mM CuSO4 solution and incubated at 37° C. for 5 hr. The reactions were stopped by addition of 1.0 mL of 20% trichloroacetic acid. Then 1.0 mL of 0.67% thiobarbituric acid in 0.05N sodium hydroxide was added, mixed, and the samples incubated for 30 min at 90° C. Samples were centrifuged briefly to pellet undissolved material, and the supernatants were transferred to a 96-well microtiter plate. Absorbances were measured at 540 nm using a Biotek model EL311 microplate reader. The nmoles of MDA produced were calculated from a standard curve of 0 to 10 nmoles of MDA prepared from malonaldehyde bis(dimethylacetal). Serum samples from treated rabbits were compared to serum samples from control rabbits that received no MDL compound.

[9] = rat liver, read-out: Liver Parent = parent compound concentration
[10] = rat serum, read-out: Serum Parent = parent compound concentration
[11] = Rattus norvegicus, read-out: CHOL (total cholesterol), percent of control

Compound `CC(C)(C)c1cc(SC[Si](C)(C)c2ccccc2)ccc1O` [MDL 104,571, 2-t-Butyl-4-[(dimethylphenylsilyl)methylthio]phenol] has a concentration at 96 h [1, 9] of 500 ng/g, a concentration at 96 h [1, 10] of 1200 ng/mL and a response vs control in vivo at 0.3 % ([2]; rat serum, diet 0.3%, 4 days) of 58%. The “food (grams eaten per day per rat), percent of control” value [3] was 108%, the mortality at 96 h [3] was 0% and the “body wt., percent of control” value [3] was 97%. The “lw/bw (liver weight/body weight), percent of control” value [3] was 123%, the response vs control in vivo at 0.3 % [4, 11] was 108% and the response vs control in vivo at 0.3 % ([4]; rat serum, diet 0.3%, 4 days, read-out: TRIG (triglycerides), percent of control) was 119%. The “ALP (alkaline phosphatase), percent of control” value ([4]; rat serum, diet 0.3%, 4 days) was 103%, the “ALT (alanine aminotransferase), percent of control” value ([4]; rat serum, diet 0.3%, 4 days) was 109% and the “AST (aspartate aminotransferase), percent of control” value ([4]; rat serum, diet 0.3%, 4 days) was 103%. For the same compound, the “GLUC (glucose), percent of control” value ([4]; rat serum, diet 0.3%, 4 days) was 96%.

With `CC(C)(C)c1cc(OC[Si](C)(C)c2cccc(C(F)(F)F)c2)cc(C(C)(C)C)c1O` [MDL 105,726, 2,6-Di-t-butyl-4-[(dimethyl-3-trifluoromethylphenylsilyl)methyloxy]phenol] the concentration at 96 h [1, 9] was 128000 ng/g, the concentration at 96 h [1, 10] was 17000 ng/mL and the response vs control in vivo at 0.3 % ([2]; Rattus norvegicus) was 48%. For the same compound, the “food (grams eaten per day per rat), percent of control” value [3] was 112%, the mortality at 96 h [3] was 0% and the “body wt., percent of control” value [3] was 105%. For the same compound, the “lw/bw (liver weight/body weight), percent of control” value [3] was 120%, the response vs control in vivo at 0.3 % [4, 11] was 104% and the response vs control in vivo at 0.3 % ([4]; Rattus norvegicus, read-out: TRIG (triglycerides), percent of control) was 75%. The “ALP (alkaline phosphatase), percent of control” value ([4]; rat serum, diet 0.3%, 4 days) was 118%, the “ALT (alanine aminotransferase), percent of control” value ([4]; rat serum, diet 0.3%, 4 days) was 113% and the “AST (aspartate aminotransferase), percent of control” value ([4]; rat serum, diet 0.3%, 4 days) was 112%. For the same compound, the “GLUC (glucose), percent of control” value ([4]; rat serum, diet 0.3%, 4 days) was 105%.

With `CC(C)(C)c1cc(OC[Si](C)(c2ccccc2)c2ccccc2)ccc1O` [MDL 107,917, 2-t-butyl-4-[(diphenylmethylsilyl)methyloxy]phenol] the “Liver Parent = parent compound concentration” value ([5]; rabbit liver) was 0 µg/g, the “Serum Parent = parent compound concentration” value ([5]; rabbit serum) was 0 µg/mL and the “food (grams eaten per day per rabbit), percent of control” value [6] was 100%. For the same compound, the “body wt., percent of control” value ([6]; rabbit) was 99%, the “lw/bw (liver weight/body weight), percent of control” value ([6]; rabbit) was 106% and the response vs control in vivo at 0.4 % ([7]; read-out: HDL cholesterol, percent of control) was 86%. The response vs control in vivo at 0.4 % ([7]; read-out: LDL cholesterol, percent of control) was 165%, the response vs control in vivo at 0.4 % ([7]; read-out: TRIG (triglycerides), percent of control) was 129% and the response vs control in vivo at 0.4 % ([7]; read-out: chol tot. (total cholesterol), percent of control) was 151%. It also gave a response vs control in vivo at 0.4 % [8] of 68%.
